According to ChEMBL document CHEMBL5230082, “Recent advances in steroid amino acid conjugates: Old scaffolds with new dimensions” (Eur J Med Chem, 2020):

Tests used:
SH-SY5Y = test: Neuroprotective activity against H2O2-induced human SH-SY5Y cell injury by MTT assay relative to control; format: functional
Rattus norvegicus [1] = test: Antiarrhythmic activity in pentobarbital anesthetized rat model assessed as number of ventricular ectopics at 10 mg/kg, iv; format: functional
Rattus norvegicus [2] = test: Antiarrhythmic activity in pentobarbital anesthetized rat model assessed as ventricular fibrillation at 10 mg/kg, iv relative to control; format: functional
Rattus norvegicus [3] = test: Antiarrhythmic activity in pentobarbital anesthetized rat model assessed as death rate at 10 mg/kg, iv relative to control; format: functional
[4] = target: Ephrin type-A receptor 2/Ephrin-A1 (Homo sapiens, UniProt P20827+P29317); test: Inhibition of EPhA2-ephrin-A1 (unknown origin) protein-protein interaction; format: protein assay
Ephrin type-A receptor 2/Ephrin-A1, sequence (P29317 whole entry): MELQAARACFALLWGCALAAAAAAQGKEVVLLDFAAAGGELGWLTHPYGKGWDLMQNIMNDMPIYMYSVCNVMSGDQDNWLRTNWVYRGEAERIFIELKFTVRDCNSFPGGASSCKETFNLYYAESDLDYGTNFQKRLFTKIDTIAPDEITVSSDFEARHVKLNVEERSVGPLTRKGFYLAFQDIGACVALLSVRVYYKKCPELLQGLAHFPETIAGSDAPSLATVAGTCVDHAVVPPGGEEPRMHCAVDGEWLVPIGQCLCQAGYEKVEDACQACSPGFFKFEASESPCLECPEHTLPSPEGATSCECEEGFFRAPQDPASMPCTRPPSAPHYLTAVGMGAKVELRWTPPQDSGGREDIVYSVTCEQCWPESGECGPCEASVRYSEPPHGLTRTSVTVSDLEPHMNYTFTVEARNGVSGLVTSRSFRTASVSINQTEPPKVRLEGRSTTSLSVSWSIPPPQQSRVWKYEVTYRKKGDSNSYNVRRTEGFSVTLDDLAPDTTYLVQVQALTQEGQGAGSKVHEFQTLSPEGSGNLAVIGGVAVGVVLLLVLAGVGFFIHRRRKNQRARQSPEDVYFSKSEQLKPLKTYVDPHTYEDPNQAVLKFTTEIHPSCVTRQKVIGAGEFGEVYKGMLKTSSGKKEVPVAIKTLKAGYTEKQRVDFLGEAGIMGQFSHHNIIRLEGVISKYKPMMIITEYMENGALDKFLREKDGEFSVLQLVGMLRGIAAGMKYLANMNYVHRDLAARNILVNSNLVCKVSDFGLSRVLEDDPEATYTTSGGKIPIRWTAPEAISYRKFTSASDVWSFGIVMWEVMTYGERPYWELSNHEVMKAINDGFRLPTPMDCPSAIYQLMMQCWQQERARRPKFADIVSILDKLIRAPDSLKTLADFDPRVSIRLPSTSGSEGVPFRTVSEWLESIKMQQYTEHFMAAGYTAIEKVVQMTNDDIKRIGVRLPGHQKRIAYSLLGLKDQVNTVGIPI
Ephrin type-A receptor 2/Ephrin-A1, sequence (P20827 whole entry): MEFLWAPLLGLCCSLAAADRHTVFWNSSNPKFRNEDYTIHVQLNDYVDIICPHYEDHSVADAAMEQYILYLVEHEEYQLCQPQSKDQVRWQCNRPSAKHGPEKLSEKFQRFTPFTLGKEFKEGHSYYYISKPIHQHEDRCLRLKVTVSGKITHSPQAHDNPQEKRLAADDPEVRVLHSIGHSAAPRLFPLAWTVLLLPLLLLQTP

[5] = target: Human immunodeficiency virus type 1 protease (Human immunodeficiency virus 1, UniProt Q72874); test: Inhibition of HIV-1 protease assessed as inhibition
Candida albicans = test: Antifungal activity against Candida albicans assessed as zone of inhibition at 100 ug per disc; format: functional; conditions: read-out: DIZ
Cladosporium cucumerinum [6] = test: Antifungal activity against Cladosporium cucumerinum assessed as zone of inhibition at 60 ug per disc; format: functional; conditions: read-out: DIZ
Cladosporium cucumerinum [7] = test: Antifungal activity against Cladosporium cucumerinum assessed as zone of inhibition at 30 ug per disc; format: functional; conditions: read-out: DIZ
[8] = Cytotoxicity against human A2780cis cells assessed as reduction in cell viability incubated for 72 hrs; format: functional, cell-based
HeLa = test: Cytotoxicity against human HeLa cells assessed as reduction in cell viability; format: functional, cell-based

With COC(=O)[C@H](Cc1ccccc1)NC(=O)[C@@H](C)CC[C@H]1O[C@H]2C[C@H]3[C@@H]4CC[C@@H]5C[C@@H](OC)CC[C@]5(C)[C@H]4CC[C@]3(C)[C@H]2[C@@H]1C the Activity (SH-SY5Y) was 102.2%.
C[C@]12C[C@H](O)[C@@H](N)C[C@@H]1CC[C@@H]1[C@@H]2CC[C@]2(C)C(=O)CC[C@@H]12 [AMAFOLONE] gave an Activity (Rattus norvegicus [1]) of 213, an Activity (Rattus norvegicus [2]) of 13% and an Activity (Rattus norvegicus [3]) of 0%.
Work on C[C@H](CCC(=O)O)[C@H]1CC[C@H]2[C@@H]3CC[C@@H]4CCCC[C@]4(C)[C@H]3CC[C@]12C [URSOCHOLANIC ACID] yielded a Ki [4] of 5.1 µM.
With C[C@H](CCC(=O)N[C@H](CC(=O)OCc1ccccc1)C(=O)O)[C@H]1CC[C@H]2[C@@H]3[C@H](O)C[C@@H]4C[C@H](O)CC[C@]4(C)[C@H]3C[C@H](O)[C@]12C the IC50 [5] was 125 µM.
Compound C=C(C(=O)N[C@H](C(=O)O)c1ccc(OC)cc1)C(C)CC[C@@H](C)[C@H]1CCC2=C3[C@H](OC)C[C@H]4[C@H](C)[C@@H](OS(=O)(=O)O)CC[C@]4(C)[C@H]3CC[C@@]21C (stereo partly specified) has a zone of inhibition at 100 µg/disc (Candida albicans) of 9.8 mm, a zone of inhibition at 60 µg/disc (Cladosporium cucumerinum [6]) of 8 mm and a zone of inhibition at 30 µg/disc (Cladosporium cucumerinum [7]) of 10.1 mm.
Compound CC(C)CCC[C@@H](C)[C@H]1CC[C@H]2[C@@H]3CC=C4C[C@@H](OC(=O)N[C@H](Cc5ccc(O)cc5)C(=O)O)CC[C@]4(C)[C@H]3CC[C@]12C has an IC50 [8] of 50 µM.
With CC(C)CCC[C@@H](C)[C@H]1CC[C@H]2[C@@H]3CC=C4C[C@@H](OC(=O)N[C@H](Cc5ccc(OP(=O)(O)O)cc5)C(=O)O)CC[C@]4(C)[C@H]3CC[C@]12C the IC50 (HeLa) was 16 µM.
